Test results from PubChem BioAssay (NCI).
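The compound was tested at five concentrations on cells cultured in 96-well plates, with a 48-hour exposure period. Abbreviation: GI50, concentration required for 50% inhibition of growth. TGI is the concentration that stops growth completely.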

What was measured:
Test in all cases: growth of human tumour cells (NCI), 48 h
SN12C renal = system: SN12C renal
KM12 colon = system: KM12 colon
HOP-62 NSCLC = system: HOP-62 NSCLC
MALME-3M melanoma = system: MALME-3M melanoma
M14 melanoma = system: M14 melanoma
EKVX NSCLC = system: EKVX NSCLC
UACC-257 melanoma = system: UACC-257 melanoma
NCI-H23 lung = system: NCI-H23 lung
HS 578T breast = system: HS 578T breast
UACC-62 melanoma = system: UACC-62 melanoma
SNB-78 CNS = system: SNB-78 CNS

Row | SMILES | TGI (SN12C renal) | TGI (KM12 colon) | TGI (HOP-62 NSCLC) | TGI (MALME-3M melanoma) | TGI (M14 melanoma) | TGI (EKVX NSCLC) | TGI (UACC-257 melanoma) | TGI (NCI-H23 lung) | TGI (HS 578T breast) | TGI (UACC-62 melanoma) | TGI (SNB-78 CNS) | GI50 (KM12 colon) | GI50 (MALME-3M melanoma) | GI50 (HS 578T breast) | GI50 (UACC-257 melanoma) | GI50 (UACC-62 melanoma) | GI50 (M14 melanoma) | GI50 (EKVX NSCLC) | GI50 (NCI-H23 lung)
1 | O=c1[nH]nc(NCc2ccccc2)c2nnn(Cc3ccccc3)c12 | > 100 µM | > 100 µM | > 100 µM | > 100 µM | > 100 µM | > 100 µM | > 100 µM | > 100 µM | – | – | – | – | – | – | – | – | – | – | –
2 | OCC1COc2cc(Cl)c(Cl)cc2O1 (configuration not stated) | > 10 µM | > 10 µM | > 10 µM | > 10 µM | > 10 µM | > 10 µM | – | > 10 µM | > 10 µM | > 10 µM | – | – | – | – | – | – | – | – | –
3 | Cc1c[n+]2c3ccccc3c3ccccc3c2s1 | 15.5 µM | 9.4 µM | 28 µM | 7.87 µM | 35.4 µM | > 100 µM | 18.3 µM | 3.9 µM | – | > 47.1 µM | > 29.5 µM | – | – | – | – | – | – | – | –
4 | Cc1cccc(Br)[n+]1[O-] | > 100 µM | > 100 µM | > 100 µM | > 100 µM | > 100 µM | > 100 µM | > 100 µM | > 100 µM | > 100 µM | > 100 µM | – | – | – | – | – | – | – | – | –
5 | NCCSc1cc(O)c2c(c1N)C(=O)c1ccccc1C2=O | > 100 µM | > 100 µM | > 100 µM | 75.5 µM | > 100 µM | > 100 µM | – | > 100 µM | – | > 100 µM | > 100 µM | – | – | – | – | – | – | – | –
6 | COc1cc(C2c3cc4c(cc3[C@@H](Nc3cccc(CO)c3)C3COC(=O)[C@H]23)OCO4)cc(OC)c1O (some centres not stated) | 6.11 µM | 6.67 µM | 0.556 µM | 11.4 µM | – | 19.8 µM | 5.04 µM | 2.77 µM | – | 2.76 µM | – | – | – | – | – | – | – | – | –
7 | COc1cc(OC)cc(-c2ccc(-c3ccc(C(=N)N)cn3)o2)c1 | – | 3.34 µM | – | 3.49 µM | – | – | 3.3 µM | – | 3.58 µM | 3.29 µM | – | 1.78 µM | 1.82 µM | 1.66 µM | 1.76 µM | 1.77 µM | – | – | –
8 | C=CCN1/C(=C(\C#N)c2nc3ccccc3[nH]2)Sc2c1nc[nH]c2=O | > 100 µM | > 100 µM | > 100 µM | > 100 µM | > 100 µM | > 100 µM | > 100 µM | > 100 µM | – | > 100 µM | > 100 µM | – | – | – | – | – | – | – | –
9 | CSCC[C@@H]1C(=O)N(C)[C@H](C(C)(C)C)N1C(=O)c1ccccc1 | > 100 µM | > 100 µM | > 100 µM | > 100 µM | – | > 100 µM | > 100 µM | > 100 µM | – | > 100 µM | > 100 µM | – | – | – | – | – | – | – | –
10 | CC(=O)c1[nH]c(NC(C)C)c(C(=S)Nc2ccccc2)c1N | 75.1 µM | > 100 µM | > 100 µM | 89.2 µM | 39.7 µM | > 100 µM | 65.8 µM | > 100 µM | > 100 µM | 53.8 µM | – | – | – | – | – | – | – | – | –
11 | COc1cc2c3cc1Oc1c(O)c(OC)cc4c1C(Cc1ccc(O)c(c1)Oc1ccc(cc1)CC3N(C)CC2)N(C)CC4 (configuration not stated) | 28.6 µM | 23.6 µM | 33.8 µM | 32.8 µM | 7.8 µM | 37.1 µM | 33.4 µM | 39 µM | – | 42.9 µM | 50.7 µM | – | – | – | – | – | – | – | –
12 | Cc1[nH]c(=O)[nH]c(=O)c1/C=C/C(=O)O (tested in a mixture with another compound) | > 625 µM | > 625 µM | > 625 µM | > 625 µM | – | > 625 µM | > 625 µM | > 625 µM | – | > 625 µM | > 625 µM | – | – | – | – | – | – | – | –
13 | COc1cc(C(=O)O[C@H](C(=O)NCCCNC(=O)[C@@H](OC(=O)c2cc(OC)cc3c(C)cccc23)[C@]2(C)CO2)[C@]2(C)CO2)c2cccc(C)c2c1 | 0.486 µM | 0.607 µM | – | – | – | 1.61 µM | 0.872 µM | 0.0224 µM | – | 2.14 µM | – | 0.101 µM | – | 0.206 µM | 0.27 µM | 0.962 µM | < 0.0486 µM | 0.0885 µM | < 0.01 µM
14 | N#CC(N=Nc1ccccc1C(=O)O)C(N)=O (configuration not stated) | > 100 µM | > 100 µM | > 100 µM | > 100 µM | > 100 µM | > 100 µM | > 100 µM | > 100 µM | – | > 100 µM | – | – | – | – | – | – | – | – | –
15 | COc1nc2cccc(C(O)c3ccccc3)c2nc1-c1ccccc1 (configuration not stated) | 25.6 µM | > 100 µM | 19.1 µM | > 100 µM | 21.2 µM | 41.9 µM | 26.9 µM | 35.5 µM | 5.62 µM | 23.9 µM | – | – | – | – | – | – | – | – | –
16 | O=C1C=CC2OC(c3ccccc3)C(O)C2O1 (configuration not stated) | 22.9 µM | 17.3 µM | 26 µM | 11.3 µM | – | 15.4 µM | 18.5 µM | 12.6 µM | – | 20.9 µM | 46.3 µM | – | – | – | – | – | – | – | –
17 | COc1cccc(/C=N/NC(=O)CSCC(=O)N/N=C/c2cccc(OC)c2OC)c1OC | > 100 µM | > 100 µM | > 100 µM | > 100 µM | > 100 µM | > 100 µM | > 100 µM | > 100 µM | > 100 µM | > 100 µM | – | – | – | – | – | – | – | – | –
18 | CCC(C)C(N)C(=O)NC(CC(N)=O)C(=O)NC(CC(C)C)C(=O)NC(CCCCN)C(=O)NC(C)C(=O)NC(CC(C)C)C(=O)NC(C)C(=O)NC(C)C(=O)NC(CC(C)C)C(=O)NC(C)C(=O)NC(CCCCN)C(=O)NC(CCCCN)C(=O)NC(C(=O)NC(CC(C)C)C(N)=O)C(C)CC (configuration not stated) | 26.4 µM | 29.5 µM | 8.55 µM | 10.7 µM | 8.64 µM | 18.7 µM | 19.1 µM | 29 µM | – | 13.8 µM | 29.2 µM | – | – | – | – | – | – | – | –
19 | CC1(C)[C@@H]2CC[C@]1(C)[C@H](OC(=O)/C=C/c1ccccc1)C2 | 34.3 µM | 42.6 µM | 63.1 µM | 38.5 µM | 70.8 µM | 41.8 µM | 63.3 µM | 50.8 µM | 41.7 µM | 57.5 µM | – | – | – | – | – | – | – | – | –
20 | O=c1c2ccccc2[nH]n1Cc1ccccc1 | > 100 µM | > 100 µM | > 100 µM | – | > 100 µM | > 100 µM | > 100 µM | > 100 µM | > 100 µM | > 100 µM | – | – | – | – | – | – | – | – | –
